Reference: the supplement of paper PMC10307832

Tests used:
Experiment in all cases: relative viability (nuclei count vs DMSO), 5 days (fraction); higher = more cells survive
[1] = compound: C1/C(=C\C2=CC=CS2)/C(=O)/C(=C/C3=CC=CS3)/C1 + C[C@@H](Oc1cc(-c2cnn(C3CCNCC3)c2)cnc1N)c1c(Cl)ccc(F)c1Cl [Crizotinib] (partner 1 µM)
Method in brief: (§1)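 Lung cancer cell lines, seeded in 1536-well plates, were treated the following day by pin tool with a single drug or with five library-drug doses (not always all listed) in √10 steps on top of a fixed anchor-drug dose. Cells were fixed and nuclei stained in one step after 5 days, and nuclei were counted. Relative viability is the nuclei count for treated wells divided by that for vehicle wells, reported as medians of duplicate plates.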

[2] = compound: C1/C(=C\C2=CC=CS2)/C(=O)/C(=C/C3=CC=CS3)/C1 + Nc1ncn([C@H]2C[C@H](O)[C@@H](CO)O2)c(=O)n1 [Decitabine] (partner 2 µM)
Method in brief: as §1

TPCA-1 + Luminespib = compound: C1=CC(=CC=C1C2=CC(=C(S2)NC(=O)N)C(=O)N)F [TPCA-1] + CCNC(=O)c1noc(-c2cc(C(C)C)c(O)cc2O)c1-c1ccc(CN2CCOCC2)cc1 [Luminespib] (partner 0.01 µM)
Method in brief: as §1

[3] = compound: C[C@]12O[C@H](C[C@]1(O)CO)n1c3ccccc3c3c4c(c5c6ccccc6n2c5c31)CNC4=O [Lestaurtinib] + CCNC(=O)c1noc(-c2cc(C(C)C)c(O)cc2O)c1-c1ccc(CN2CCOCC2)cc1 [Luminespib] (partner 0.01 µM)
Method in brief: as §1

Which relative viability ([1]; first compound 0.2 µM) does the source give for UMC-11 here?
The relative viability was 0.62.

And the relative viability ([1]; first compound 0.6325 µM)?
Its relative viability is 0.685.

What about the relative viability ([1]; first compound 2 µM) of the same cell line?
Its relative viability is 0.687.

What about the relative viability ([1]; first compound 20 µM) of the same cell line?
Its relative viability is 0.571.

What about the relative viability ([2]; first compound 0.2 µM) of the same cell line?
Its relative viability is 0.752.

What about the relative viability ([2]; first compound 0.6325 µM) of the same cell line?
Its relative viability is 0.653.

And the relative viability ([2]; first compound 2 µM)?
The relative viability was 0.637.

What about the relative viability ([2]; first compound 6.325 µM) of the same cell line?
The relative viability was 0.513.

What about the relative viability ([2]; first compound 20 µM) of the same cell line?
Its relative viability is 0.515.

And the relative viability (TPCA-1 + Luminespib; first compound 0.04 µM)?
The relative viability was 1.18.

What about the relative viability (TPCA-1 + Luminespib; first compound 0.1265 µM) of the same cell line?
The relative viability was 0.914.

What about the relative viability (TPCA-1 + Luminespib; first compound 0.4 µM) of the same cell line?
The relative viability was 1.09.

What about the relative viability (TPCA-1 + Luminespib; first compound 1.265 µM) of the same cell line?
Its relative viability is 0.957.

And the relative viability (TPCA-1 + Luminespib; first compound 4 µM)?
The relative viability was 0.684.

What about the relative viability ([3]; first compound 0.005 µM) of the same cell line?
The relative viability was 0.936.

And the relative viability ([3]; first compound 0.01581 µM)?
Its relative viability is 0.992.

And the relative viability ([3]; first compound 0.05 µM)?
Its relative viability is 0.675.

And the relative viability ([3]; first compound 0.1581 µM)?
Its relative viability is 0.286.

What about the relative viability ([3]; first compound 0.5 µM) of the same cell line?
The relative viability was 0.164.
